According to paper PMC7249060, “The Antiproliferative Effects of Flavonoid MAO Inhibitors on Prostate Cancer Cells” (Molecules, 2020):

Tests used:
[1] = biological target: T1, hMAO-A (Homo sapiens, UniProt P21397); assay: MAO-Glow luminescence screen of KKRs at 100 μM; type: biochemical; details: from screen at 100 μM, 37 °C, 60 min, LDS 40 μM
T1 construct: purchased Sigma-Aldrich Co. (St. Louis, MO, USA)
T1 sequence (P21397 1-527): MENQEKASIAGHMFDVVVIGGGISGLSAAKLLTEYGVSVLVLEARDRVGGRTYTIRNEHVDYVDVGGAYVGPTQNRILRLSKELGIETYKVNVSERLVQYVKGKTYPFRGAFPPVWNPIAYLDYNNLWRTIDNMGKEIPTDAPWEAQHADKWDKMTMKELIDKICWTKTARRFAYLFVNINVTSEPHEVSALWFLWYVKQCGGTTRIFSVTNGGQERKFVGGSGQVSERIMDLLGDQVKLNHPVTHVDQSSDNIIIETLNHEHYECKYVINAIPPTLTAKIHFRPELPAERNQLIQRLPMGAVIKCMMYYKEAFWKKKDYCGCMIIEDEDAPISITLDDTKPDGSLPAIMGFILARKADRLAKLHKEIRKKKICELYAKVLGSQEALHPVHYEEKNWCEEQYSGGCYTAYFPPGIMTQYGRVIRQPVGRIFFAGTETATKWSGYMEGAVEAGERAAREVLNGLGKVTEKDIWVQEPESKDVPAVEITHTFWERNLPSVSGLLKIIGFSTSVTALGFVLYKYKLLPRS
Procedure: We optimized our control hMAO-A and hMAO-B isozymes reactions in the incubation condition, at 37 °C for 1 h, by performing a luminescence assay using the MAO-Glow™ kit. Upon arrival, each isozyme was diluted with 10 mM HEPES in cold HBSS of pH 7.4. Afterward, the diluted isozymes were kept at −80 °C until use. Enzyme concentration optimization was accomplished by testing ten 2X serially diluted hMAO-A and hMAO-B concentrations for a final range of 7.00–0.01 U/mL each. The tested isozymes were incubated with LDS of 40 and 4 μM for isozymes A and B, respectively (recommended by Promega protocol), and a maximum of used DMSO of 1% final concentration. Different isozyme concentrations reactions at their initial velocities were monitored. Consequently, their required concentrations were defined to be 0.44 U/mL each. Additionally, ten different LDS concentrations, ranging from 0.3–150 μM, were monitored for optimizing and validating the linearity of the initial reaction for the hMAO-A mode of action. Subsequently, we chose a saturated substrate of 75 μM as a required concentration for the hMAO-A enzyme kinetic reactions.
(§1) The inhibitory effects of the synthesized KKRs of hMAO-A and B were tested by measuring the decrease in arbitrary light units (ALU) signal produced by the optimized isozymes using the MAO-Glow™ Assay at 37 °C. In this assay, DMSO stock for each KKR compound was diluted with a reaction buffer of pH 7.4 to make a 4X working solution for a maximum final concentration of 100 μM and ≤1% DMSO. The experiments were run in the absence and presence of 4X the miscellaneous standards of MAO-BIs (DEP, PARG, and SAF) and MAO-AIs (PIRL and CLORG), with similar concentrations. In white opaque 96-well microplates, 12.5 μL of each compound was plated at RT and was followed by 25 μL of 2X cold hMAO-A or hMAO-B, for a final concentration of 0.44 U/mL. A related buffer substituted each isozyme to make the blank wells and substituted each compound to make the negative control wells. Following this, we added 12.5 μL of 4X LDS to make a final substrate concentration of 40- and 4-μM for hMAO-A and hMAO-B, respectively. All screen plates were incubated at 37 °C for 60 min. The plates of 50 μL/well were then taken out from the incubator, and their reactions were stopped by an equal volume of 50 μL of reporter luciferin detection reagent (RLDR). After 30 min, the luminescence signals for all plates were read on a Synergy HTX Multi-reader from Bio-Tek (Winooski, VT, USA).

[2] = biological target: T1, hMAO-A; assay: MAO-Glow inhibitory potency (IC50) and relative selectivity; type: biochemical; details: for hMAO-A relative selectivity (RSA): RSA = hMAO-B IC50/hMAO-A IC50; for MAO isozyme selectivity: comparison of hMAO-A and hMAO-B IC50s; for IC50: mean ± SEM, at least two experiments, LDS 40 μM
Procedure: as §1
The experiments were performed in the presence and absence of the standard PILR. In white opaque 96-well plates, each KKR compound was serially diluted with a reaction buffer of pH 7.4 at the highest possible maximum final concentration, and the least used DMSO (<2%). In blank wells, the related reaction buffer substituted the isozyme. In negative control wells, the reaction buffer substituted each compound concentration. Then, the procedure was carried out as mentioned above (Section 4.2.2), and the reaction was detected on the Bio-Tek Synergy HTX Multi-Reader. The IC50 of each KKR on both isozymes was determined and subsequently the RSA and RSB was calculated.
Statistical analyses were performed using the GraphPad Prism program (version 6.07 for Windows) from the GraphPad Prism Software Incorporated (San Diego, CA, USA). All data points and parameters were expressed as the mean ± SEM. All parameters were calculated from non-linear and linear regressions with the best R^2 values, no less than 93%. The inhibitory concentration of 50% of isozyme (IC50) of each compound was obtained by the interpolation of a normalized variable slope logarithmic curve. The RSA values of the selected compounds were calculated from their IC50 average means following the equation RSA = hMAO − B IC50/Hmao − A IC50(1)

[3] = tested on: DU145 cells; assay: Scratch migration assay; type: cell-based, human; details: preliminary data
Procedure: For in-vitro migration experiments, the PCa metastatic DU145 cell line was used. Cell proliferation and cytotoxicity were monitored for assay validation. The cells (passage # ≤ 10) were grown in fresh media of EMEM 10% FBS, 1% P/S. The cells were seeded in flat-bottom transparent 96-well microplates (100,000 cells/100 μL/well) in EMEM 5% FBS, 1% P/S experimental media. The next day, the confluent cells monolayer was artificially injured by scratching a line across each well, using a 200 μL tip. Immediately, the old media with the detached cells were replaced with 175 μL fresh warm experimental media. Intact cells were then treated with 25 μL of HBSS buffer 7.4 containing tested KKR. In addition to the negative control, KKR11 was tested at gradual concentrations to make finals of 40, 30, 23, 17, and 13 μM. The cells were then incubated for an additional 72 h for gap closure of the control wells.
At the gap closure time point, all cells were subjected to the crystal violet assay that only stains viable cells. Briefly, all media were carefully aspired from cells that were then washed with Ca- and Mg-free PBS. The cells were then fixed with 100 μL 0.25% v/v glutaraldehyde, at 37 °C for 20–30 min incubation time, and dried overnight. The next day, all viable attached cells were stained with a 100 μL crystal violet solution (0.1% in DI-water) for up to 30 min. The solution was then discarded, and the stained cells were kept dry for imaging. Images of the scratched areas were photographed using 10X phase contrast objective lenses of Motic-MXH-100-AE31E-Elite Inverted Microscope.

Compound | IC90 [1] | hMAO-A relative selectivity (RSA) [2] | MAO isozyme selectivity [2] | IC50 [2] | effect on cell migration [3]
O=c1c(O)c(-c2ccccc2)oc2c(Cl)cc(Cl)cc12 [KKR7, 6,8-dichloro-3-hydroxy-2-phenyl-4H-chromen-4-one] | < 100 µM | > 42105 folds | highly selective MAO-AIs | 16 ± 0.53 µM | no significant effects against cell migration
O=C(/C=C/c1ccccc1)c1cc(Cl)cc(Cl)c1O [KKR20, (E)-1-(3,5-dichloro-2-hydroxyphenyl)-3-phenylprop-2-en-1-one] | < 100 µM |  | in favor to inhibit MAO-B | 2.94 ± 0.39 µM | no significant effects against cell migration
COc1cc(OC)c2c(=O)c(O)c(/C=C/c3cc(OC)c(OC)c(OC)c3)oc2c1 [KKR2A, (E)-3-hydroxy-5,7-dimethoxy-2-(3,4,5-trimethoxystyryl)-4H-chromen-4-one] | < 100 µM |  | non-selective MAO inhibitory activity | 1.03 ± 0.04 µM | 

More lines, in order of falling IC50 [2], values ahead:

IC90 [1] | hMAO-A relative selectivity (RSA) [2] | MAO isozyme selectivity [2] | IC50 [2] | Compound | effect on cell migration [3]
< 100 µM |  | non-selective MAO-I | 0.31 ± 0.03 µM | COc1cc(O)c(C(=O)/C=C/c2ccc(Cl)c(Cl)c2)c(OC)c1 [KKR11, (E)-3-(3,4-dichlorophenyl)-1-(2-hydroxy-4,6-dimethoxyphenyl)prop-2-en-1-one] | delayed cell migration
< 100 µM | > 42105 folds | highly selective MAO-AIs | 0.019 µM | O=c1cc(-c2ccccc2)oc2cc(Cl)c(Cl)cc12 [KKR21, 6,7-dichloro-2-phenyl-4H-chromen-4-one] | 
